Results: patent US20260274895A1, “DE NOVO DESIGNED MEMBRANE-TRAVERSING AND ORALLY BIOAVAILABLE MACROCYCLES” (UNIVERSITY OF WASHINGTON, priority 2022, published 2026)
Where a SMILES comes first, the peptide text is derived from it. [ ]: non-standard residue; d: D form. NMeF = CN[C@@H](Cc1ccccc1)C(=O)O; dNMeF = CN[C@H](Cc1ccccc1)C(=O)O; NMeL = CN[C@@H](CC(C)C)C(=O)O; dNMeL = CN[C@H](CC(C)C)C(=O)O; NMeV = CN[C@H](C(=O)O)C(C)C; NMeA = CN[C@@H](C)C(=O)O; dNMeA = CN[C@H](C)C(=O)O; Aib = CC(C)(N)C(=O)O

Settings: for PAMPA_Papp_Avg (apparent permeability): PAMPA

PAMPA_Papp_Avg (apparent permeability) [×10⁻⁶ cm/s]	membrane permeability in PAMPA (in words)	SMILES
9.02	–	CC[C@@H](C)[C@H]1NC(=O)[C@H](Cc2ccccc2)N(C)C(=O)[C@@H](CC(C)C)N(C)C(=O)[C@H](C(C)C)NC(=O)[C@H](C)NC(=O)[C@@H]2CCCN2C(=O)[C@H](CC(C)C)N(C)C(=O)[C@@H](Cc2ccccc2)N(C)C(=O)[C@H](C)N(C)C(=O)[C@H](C)N(C)C1=O [Design D10.56, *f*LPAV*l*Fi*A*A] (cyclo(AV[dNMeL][NMeF][dI][NMeA][NMeA][dNMeF][NMeL]P))
7.09	–	CC[C@H](C)[C@@H]1NC(=O)[C@H](Cc2ccccc2)N(C)C(=O)[C@H]2CCCN2C(=O)[C@H]([C@@H](C)CC)NC(=O)[C@H](C(C)C)NC(=O)[C@@H](C)NC(=O)[C@H]2CCCN2C1=O [Design D7.9, VIp*FIpa] (cyclo(I[dP][NMeF]I[dP][dA]V))
0.424	–	CC(C)[C@H]1NC(=O)[C@@H]2CCCN2C(=O)[C@@H](C)NC(=O)[C@@H](Cc2ccccc2)NC(=O)[C@@H]2CCCN2C(=O)[C@H](Cc2ccccc2)NC1=O [Design D6.7, faPvFP] (cyclo(FP[dF][dA]P[dV]))
0.161	–	CC(C)C[C@@H]1C(=O)N[C@@H](C)C(=O)N[C@H](CC(C)C)C(=O)N2CCC[C@H]2C(=O)N[C@H](C)C(=O)N2CCC[C@@H]2C(=O)N2CCC[C@H]2C(=O)N[C@H](C(C)C)C(=O)N[C@H](CC(C)C)C(=O)N(C)[C@H](CC(C)C)C(=O)N1C [Design D10.43, apPvl*l*LAlP] (cyclo([dV][dL][dNMeL][dNMeL]A[dL]P[dA][dP]P))
1.9	–	CC[C@H](C)[C@@H]1NC(=O)[C@@H](CC(C)C)NC(=O)[C@@H](C)N(C)C(=O)[C@H](Cc2ccccc2)NC(=O)[C@@H](CC(C)C)NC(=O)[C@@H](C)N(C)C(=O)[C@@H]2CCCN2C(=O)[C@H](C(C)C)NC(=O)[C@H]2CCCN2C(=O)[C@@H]2CCCN2C1=O [Design D10.31, F*alIPpVP*al] (cyclo(F[dNMeA][dL]IP[dP]VP[dNMeA][dL]))
0.49	–	CC(C)[C@@H]1NC(=O)[C@H]2CCCN2C(=O)[C@@H](C(C)C)NC(=O)[C@@H]2CCCN2C(=O)[C@H](Cc2ccccc2)NC(=O)[C@H](Cc2ccccc2)NC(=O)[C@H]2CCCN2C(=O)[C@@H](C(C)C)NC(=O)[C@@H]2CCCN2C(=O)[C@H](C(C)C)NC1=O [Design D10.27, PvpVVPvpFF] (cyclo(FFP[dV][dP]VVP[dV][dP]))
2.81	–	CC[C@@H](C)[C@H]1NC(=O)[C@@H](CC(C)C)NC(=O)[C@H](C(C)C)NC(=O)[C@@H](CC(C)C)N(C)C(=O)[C@@H]2CCCN2C(=O)[C@H](C)NC(=O)[C@H](CC(C)C)N(C)C(=O)[C@H]2CCCN2C(=O)[C@H](C)N(C)C(=O)[C@@H](CC(C)C)N(C)C(=O)[C@@H]2CCCN2C1=O [Design D11.5, AP*lVliP*l*Ap*L] (cyclo(AP[dNMeL]V[dL][dI]P[dNMeL][NMeA][dP][NMeL]))
0.279	–	CC(C)C[C@@H]1NC(=O)[C@H](C(C)C)NC(=O)[C@@H](CC(C)C)N(C)C(=O)[C@H](C)NC(=O)[C@@H](CC(C)C)N(C)C(=O)[C@@H]2CCCN2C(=O)[C@H]2CCCN2C(=O)[C@H](C)N(C)C(=O)[C@H]2CCCN2C(=O)[C@@H](CC(C)C)NC1=O [Design D10.35, Llp*ApP*LA*lV] (cyclo([dNMeL]A[dNMeL]VL[dL][dP][NMeA][dP]P))
3.51	–	CC(C)C[C@H]1NC(=O)[C@@H]2CCCN2C(=O)[C@@H](C(C)C)NC(=O)[C@@H](C)N(C)C(=O)[C@@H](C(C)C)NC(=O)[C@@H]2CCCN2C(=O)[C@@H](Cc2ccccc2)NC(=O)[C@H](CC(C)C)N(C)C(=O)[C@@H](C(C)C)NC1=O [Design D9.9, Pv*avPlv*Lf] (cyclo([NMeL][dF]P[dV][dNMeA][dV]P[dL][dV]))
1.77	–	CC(C)[C@@H]1C(=O)N[C@@H](Cc2ccccc2)C(=O)N2CCC[C@H]2C(=O)N(C)[C@H](Cc2ccccc2)C(=O)N[C@H](C)C(=O)N2CCC[C@H]2C(=O)N1C (single isomer, unassigned) [Design D6.8.p2, *faP*vFP]
1.99	–	CC(C)C[C@H]1NC(=O)[C@@H]2CCCN2C(=O)[C@@H]2CCCN2C(=O)[C@@H](C)NC(=O)[C@@H](Cc2ccccc2)NC(=O)[C@H]2CCCN2C1=O [Design D6.3, pfaPpl] (cyclo(PP[dL][dP][dF][dA]))
3.37	–	CC[C@@H](C)[C@H]1NC(=O)[C@H]2CCCN2C(=O)[C@H]([C@@H](C)CC)NC(=O)[C@H](CC(C)C)N(C)C(=O)[C@H]2CCCN2C(=O)[C@@H]2CCCN2C(=O)[C@H](Cc2ccccc2)N(C)C(=O)[C@H](Cc2ccccc2)NC(=O)[C@H]([C@@H](C)CC)NC1=O [Design D9.13, piIF*FPp*LI] (cyclo(F[NMeF]P[dP][NMeL]I[dP][dI]I))
0.24	–	CC(C)C[C@@H]1NC(=O)[C@H](Cc2ccccc2)N(C)C(=O)[C@H]2CCCN2C(=O)[C@@H](CC(C)C)NC(=O)[C@@H](CC(C)C)NC(=O)[C@H](C)NC(=O)[C@H]2CCCN2C(=O)[C@@H]2CCCN2C(=O)[C@@H](C(C)C)NC1=O [Design D9.32, pAllp*FLvP] (cyclo(A[dL][dL][dP][NMeF]L[dV]P[dP]))
1.59	–	CC[C@H](C)[C@@H]1NC(=O)[C@@H](CC(C)C)N(C)C(=O)[C@@H]2CCCN2C(=O)[C@H](C(C)C)NC(=O)C(C)(C)NC(=O)[C@H](CC(C)C)NC(=O)C(C)(C)NC(=O)[C@@H]2CCCN2C(=O)[C@H]2CCCN2C1=O [Design D9.1, pPBLBVP*lI] (cyclo([Aib]L[Aib]VP[dNMeL]I[dP]P))
12.2	–	CC[C@@H](C)[C@H]1NC(=O)[C@@H](Cc2ccccc2)N(C)C(=O)[C@@H]2CCCN2C(=O)[C@@H]([C@H](C)CC)NC(=O)[C@@H](Cc2ccccc2)N(C)C(=O)[C@@H]2CCCN2C1=O [Design D6.2, iP*fiP*f] (cyclo(P[dNMeF][dI]P[dNMeF][dI]))
1.23	–	CC(C)C[C@@H]1C(=O)N[C@H](CC(C)C)C(=O)N2CCC[C@@H]2C(=O)N2CCC[C@@H]2C(=O)N(C)[C@@H](C)C(=O)N[C@H](Cc2ccccc2)C(=O)N[C@@H](C)C(=O)N(C)[C@@H](CC(C)C)C(=O)N1C [Design D8.10, pp*AfA*L*ll] (cyclo(A[NMeL][dNMeL][dL][dP][dP][NMeA][dF]))
1.28	–	CC(C)C[C@@H]1C(=O)N(C)[C@H](CC(C)C)C(=O)N[C@H](CC(C)C)C(=O)N[C@@H](C(C)C)C(=O)N2CCC[C@@H]2C(=O)N2CCC[C@H]2C(=O)N[C@H](CC(C)C)C(=O)N[C@@H](C(C)C)C(=O)N1C [Design D8.23, lV*l*llVpP] (cyclo([dL]V[dNMeL][dNMeL][dL]V[dP]P))
1.76	–	CC(C)C[C@@H]1C(=O)N(C)[C@H](CC(C)C)C(=O)N2CCC[C@H]2C(=O)N[C@H](CC(C)C)C(=O)N2CCC[C@@H]2C(=O)N2CCC[C@@H]2C(=O)N(C)[C@H](CC(C)C)C(=O)N[C@H](Cc2ccccc2)C(=O)N[C@@H](C)C(=O)N1C [Design D9.18, A*l*lPlpp*lf] (cyclo(A[dNMeL][dNMeL]P[dL][dP][dP][dNMeL][dF]))
2.27	–	CC(C)C[C@@H]1NC(=O)[C@@H](CC(C)C)NC(=O)[C@@H]2CCCN2C(=O)[C@@H](CC(C)C)NC(=O)[C@H](C)N(C)C(=O)[C@H](C)NC(=O)[C@H](CC(C)C)N(C)C(=O)[C@@H]2CCCN2C(=O)[C@H](CC(C)C)NC(=O)[C@H](CC(C)C)N(C)C1=O [Design D10.16, lL*LLP*LA*AlP] (cyclo(A[NMeA][dL]P[dL]L[NMeL]LP[NMeL]))
1.74	–	CC(C)C[C@@H]1C(=O)N[C@H](C(C)C)C(=O)N(C)[C@@H](C(C)C)C(=O)N2CCC[C@H]2C(=O)N2CCC[C@@H]2C(=O)N[C@@H](C)C(=O)N(C)[C@@H](Cc2ccccc2)C(=O)N(C)[C@H](CC(C)C)C(=O)N[C@H](C)C(=O)N1C [Design D9.17, pA*F*la*lv*VP] (cyclo(A[NMeF][dNMeL][dA][dNMeL][dV][NMeV]P[dP]))
3.64	–	CC(C)[C@H]1C(=O)N[C@H](Cc2ccccc2)C(=O)N2CCC[C@H]2C(=O)N[C@H](Cc2ccccc2)C(=O)N2CCC[C@H]2C(=O)N2CCC[C@H]2C(=O)N1C [Design D6.6, PP*VfPf] (cyclo([NMeV][dF]P[dF]PP))
1.48	–	CC[C@@H](C)[C@H]1NC(=O)[C@H]2CCCN2C(=O)[C@@H]2CCCN2C(=O)[C@@H](CC(C)C)NC(=O)[C@H](C)NC(=O)[C@@H](CC(C)C)N(C)C(=O)[C@@H](C)N(C)C(=O)[C@@H]2CCCN2C(=O)[C@@H]([C@H](C)CC)NC(=O)[C@@H](CC(C)C)N(C)C1=O [Design D10.39, P*a*lAlPpi*li] (cyclo(A[dL]P[dP][dI][dNMeL][dI]P[dNMeA][dNMeL]))
13.9	–	CC(C)C[C@H]1NC(=O)[C@@H]2CCCN2C(=O)[C@@H]2CCCN2C(=O)[C@@H](C)NC(=O)[C@@H](Cc2ccccc2)N(C)C(=O)[C@H]2CCCN2C1=O [Design D6.4, p*faPPl] (cyclo(PP[dL][dP][dNMeF][dA]))
–	significant permeability	CC(C)C[C@@H]1NC(=O)[C@H]2CCCN2C(=O)[C@H](CC(C)C)N(C)C(=O)[C@@H](C(C)C)NC(=O)[C@H](CC(C)C)NC(=O)[C@H]2CCCN2C(=O)[C@H](CC(C)C)N(C)C(=O)[C@@H](C(C)C)NC1=O [Design D8.21, v*LpLv*LpL] (cyclo(L[dV][NMeL][dP]L[dV][NMeL][dP]))
5.9	–	CC[C@@H](C)[C@H]1NC(=O)[C@@H](CC(C)C)N(C)C(=O)[C@@H]2CCCN2C(=O)[C@@H]([C@H](C)CC)NC(=O)[C@@H](CC(C)C)NC(=O)[C@@H](CC(C)C)N(C)C(=O)[C@@H]2CCCN2C(=O)[C@@H](C(C)C)NC1=O [Design D8.8, P*lliP*liv] (cyclo(P[dNMeL][dI][dV]P[dNMeL][dL][dI]))
0.189	–	CC(C)C[C@@H]1NC(=O)[C@@H]2CCCN2C(=O)[C@H]2CCCN2C(=O)[C@@H](C)N(C)C(=O)[C@@H](CC(C)C)N(C)C(=O)[C@H](C(C)C)NC(=O)[C@@H](C)N(C)C(=O)[C@H]2CCCN2C(=O)[C@@H]2CCCN2C1=O [Design D9.22, p*aV*l*apPLP] (cyclo(LP[dP][dNMeA]V[dNMeL][dNMeA][dP]P))
